Key:
[1] = Chelation studies by ESI-MS, overall statement on ion binding; details: binding order Cu^1+=Cu^2+>Fe^2+=Fe^3+>Zn^2+; no binding with Ca^2+ or Mg^2+
Protocol: The relative amount of ions bound by JHX-1-JHX-8 was determined by electrospray ionization mass spectrometry (ESI-MS) according to the method of Baron and Hering (Baron and Hering (1998) Spectrometry J. Environ. Qual., 27:844-850). In this method solutions containing Fe^2+, Fe^3+, Cu^1+, Cu^2+, Zn^2+, Ca^2+, Mg^2+ were mixed with compound in ratios of 10:1, 1:1, and 1:10. After 45 minutes of mixing, each solution was directly infused into the MS with constant ionization energy and the relative decreases of the parent peaks in these solutions were determined. […] FIG. 3 illustrates ion binding with increased Fe^+2 concentrations results in decreased compound parent peak heights by ESI-MS when compounds contain appropriate functional groups for metal ion chelation.

[2] = tested on: SRA-1 human lens epithelium cell line; assay: MTS cell viability assay; assay type: cell-based; details: 1.0 mM H2O2, 2 hours, 1 mM compound
Protocol: The SRA-1 human lens epithelium cell line (Ibaraki et al. (1998) Exp. Eye Res., 67:577-85) was used to evaluate the antioxidant activity of JHX-1-8. […] The cells were passaged when 80-90% confluent by treatment with trypsin-EDTA. The cells were plated at a density of 1×10^4 cells onto 96-well plates or 1×10^6 cells onto 100-mm dishes. ROS levels/effects in cells treated with JHX-1-8 were compared to similar cells treated with the water soluble Vitamin E derivative, Trolox (antioxidant control) or no drug (control). […] Cells were cultured in 96-well plates and exposed for 2 hours to media containing 1.0 mM H2O2 (FIG. 5A) or Fenton reagents (1.0 mM H2O2 and 1.0 mM Fe^2+, FIG. 5B) with/without 1 mM JHX-1-8 or Trolox. Viability was measured as the absorbance of MTS stain at 490 nm 1 hour after the addition of 20 μL of […] AQueous One Solution Cell Proliferation Assay to each well. The results were normalized to blank control (100%) since absorbance is directly proportional to the living cell population.

COc1nc(N2CC(=O)N(S(=O)(=O)N(C)C)C(=O)C2)nc(OC)c1O [JHX-8, 1-N,N′-dimethylsulfamoyl-4-(4,6-dimethoxy-5-hydroxy-2-pyrimidyl)piperazine-2,6-dione]
ion binding [1]: bind ions | protection against H2O2 induced loss of cell viability [2]: protecting against H2O2 induced loss of cell viability

CN(C)S(=O)(=O)N1C(=O)CN(c2ncc(O)cn2)CC1=O [JHX-4, 1-N,N′-dimethylsulfamoyl-4-(5-hydroxy-2-pyrimidyl)piperazine-2,6-dione]
ion binding [1]: bind ions | protection against H2O2 induced loss of cell viability [2]: protecting against H2O2 induced loss of cell viability
